In ChEMBL document CHEMBL4371036, “Discovery and structure-activity relationship of imidazolinylindole derivatives as kallikrein 7 inhibitors” (Bioorg Med Chem Lett, 2019):

Columns and labels:
Kallikrein-7 [1] = biological target: Kallikrein-7 (Homo sapiens, UniProt P49862); assay: Inhibition of thermolysin activated recombinant human C-terminal 10-His tagged KLK7 (E23 to H252 residues) using MOCAc-Arg-Pro-Lys-Pro-Val-Glu-Nva-Trp-Arg-Lys(Dnp)-NH2 as substrate preincubated for 10 mins followed by substrate addition and measured after 30 mins by fluorescence analysis
Sequence of Kallikrein-7 (Homo sapiens, UniProt P49862) (P49862 whole entry, the tested form may be a part): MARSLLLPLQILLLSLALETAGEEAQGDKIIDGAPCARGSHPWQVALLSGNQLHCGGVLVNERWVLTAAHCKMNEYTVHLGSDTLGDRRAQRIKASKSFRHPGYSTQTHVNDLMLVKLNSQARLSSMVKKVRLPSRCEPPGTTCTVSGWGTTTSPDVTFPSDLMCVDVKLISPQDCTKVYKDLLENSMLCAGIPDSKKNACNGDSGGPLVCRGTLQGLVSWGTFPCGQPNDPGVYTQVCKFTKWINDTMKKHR

Kallikrein-7 [2] = biological target: Kallikrein-7 (Mus musculus, UniProt Q91VE3); assay: (§1) Inhibition of enterokinase activated recombinant mouse C-terminal His6-tagged KLK7 (Gln22 to Arg249 residues) using MOCAc-Arg-Pro-Lys-Pro-Val-Glu-Nva-Trp-Arg-Lys(Dnp)-NH2 as substrate preincubated for 10 mins followed by substrate addition and measured after 30 mins by fluorescence analysis
Sequence of Kallikrein-7 (Mus musculus, UniProt Q91VE3) (Q91VE3 whole entry): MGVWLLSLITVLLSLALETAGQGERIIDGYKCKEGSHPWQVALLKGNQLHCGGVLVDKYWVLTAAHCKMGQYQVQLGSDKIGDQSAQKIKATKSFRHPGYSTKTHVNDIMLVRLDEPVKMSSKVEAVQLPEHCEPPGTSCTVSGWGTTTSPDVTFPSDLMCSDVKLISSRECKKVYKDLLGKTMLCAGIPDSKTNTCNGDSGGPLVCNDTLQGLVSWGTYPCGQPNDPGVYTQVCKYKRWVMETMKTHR

[3] = biological target: Kallikrein-7 (Mus musculus) (UniProt Q91VE3); assay: as §1, with “residues) at 100 uM” for “residues)”, “analysis relative to control” for “analysis”
Sequence of Kallikrein-7 (Mus musculus) (Q91VE3 whole entry): as above

## CC1=NC(c2cn(S(=O)(=O)c3cccc(Cl)c3)c3ccc(C)cc23)CN1 (configuration not stated)
Kallikrein-7 [1]
  IC50: 30 µM
Kallikrein-7 [2]
  IC50: 10 µM

## CC1=NC(c2cn(Cc3ccc(Cl)cc3)c3ccccc23)CN1 (configuration not stated)
Kallikrein-7 [1]
  IC50: 22 µM

## CC1=NC(c2cn(S(=O)(=O)c3ccc(Cl)cc3)c3ccc(Br)cc23)CN1 (configuration not stated)
Kallikrein-7 [1]
  IC50: 4.7 µM
[3]
  inhibition: 35%

## CC1=NC(c2cn(S(=O)(=O)c3ccccc3F)c3ccc(C)cc23)CN1 (configuration not stated)
Kallikrein-7 [1]
  IC50: 4.1 µM
Kallikrein-7 [2]
  IC50: 6.4 µM

## CC1=NC(c2cn(S(=O)(=O)c3ccccc3)c3ccc(C)cc23)CN1 (configuration not stated)
Kallikrein-7 [1]
  IC50: 17 µM
Kallikrein-7 [2]
  IC50: 15 µM

## CC1=NC(c2cn(S(=O)(=O)c3ccccc3C#N)c3ccc(C)cc23)CN1 (configuration not stated)
Kallikrein-7 [1]
  IC50: 6.7 µM
Kallikrein-7 [2]
  IC50: 11 µM

## CC1=NC(c2cn(S(=O)(=O)c3ccc(C)cc3)c3ccccc23)CN1 (configuration not stated)
Kallikrein-7 [1]
  IC50: 10 µM
[3]
  inhibition: 14%

## CC1=NC(c2cn(S(=O)(=O)c3ccc(F)cc3)c3ccc(C)cc23)CN1 (configuration not stated)
Kallikrein-7 [1]
  IC50: 9.4 µM
Kallikrein-7 [2]
  IC50: > 30 µM

## CC1=NC(c2cn(S(=O)(=O)c3c(Cl)cccc3Cl)c3ccc(C)cc23)CN1 (configuration not stated)
Kallikrein-7 [1]
  IC50: 14 µM
Kallikrein-7 [2]
  IC50: 10 µM

## CC1=NC(c2cn(S(=O)(=O)c3ccccc3C)c3ccc(C)cc23)CN1 (configuration not stated)
Kallikrein-7 [1]
  IC50: 1 µM
Kallikrein-7 [2]
  IC50: 1.3 µM

## CC1=NC(c2cn(S(=O)(=O)c3ccccc3Br)c3ccc(C)cc23)CN1 (configuration not stated)
Kallikrein-7 [1]
  IC50: 0.39 µM
Kallikrein-7 [2]
  IC50: 0.4 µM

## CC1=NC(c2cn(S(C)(=O)=O)c3ccccc23)CN1 (configuration not stated)
Kallikrein-7 [1]
  IC50: > 100 µM

## CC1=NC(c2cn(S(=O)(=O)c3cccs3)c3ccc(C)cc23)CN1 (configuration not stated)
Kallikrein-7 [1]
  IC50: 11 µM
Kallikrein-7 [2]
  IC50: 22 µM

## Cc1ccc(S(=O)(=O)n2cc(C3CNC(C4CCCCC4)=N3)c3ccccc32)cc1 (configuration not stated)
Kallikrein-7 [1]
  IC50: > 100 µM

## CC1=NC(c2cn(S(=O)(=O)c3ccc(Cl)cc3)c3ccccc23)CN1C (configuration not stated)
Kallikrein-7 [1]
  IC50: > 30 µM

## CC1=NC(c2cn(S(=O)(=O)c3ccc(Cl)cc3)c3ccc(C)cc23)CN1 (configuration not stated)
Kallikrein-7 [1]
  IC50: 1.9 µM
[3]
  inhibition: 33%
Kallikrein-7 [2]
  IC50: > 100 µM

## Cc1ccc(S(=O)(=O)n2cc(C3CNC(C(C)C)=N3)c3ccccc32)cc1 (configuration not stated)
Kallikrein-7 [1]
  IC50: 70 µM

## CC1=NC(c2cn(S(=O)(=O)c3ccc(Cl)cc3)c3ccccc23)CN1 (configuration not stated)
Kallikrein-7 [1]
  IC50: 5.7 µM
[3]
  inhibition: 17%

## CC1=NC(c2cn(S(=O)(=O)c3ccccc3Cl)c3ccc(C)cc23)CN1 (configuration not stated)
Kallikrein-7 [1]
  IC50: 1.2 µM
Kallikrein-7 [2]
  IC50: 1.5 µM

## CCC1=NC(c2cn(S(=O)(=O)c3ccc(C)cc3)c3ccccc23)CN1 (configuration not stated)
Kallikrein-7 [1]
  IC50: 24 µM

## CC1=NC(c2cn(S(=O)(=O)c3cccc(Cl)c3)c3ccccc23)CN1 (configuration not stated)
Kallikrein-7 [1]
  IC50: > 30 µM
[3]
  inhibition: 77%
